Test results: US20130158072A1, “KAPPA OPIOID RECEPTOR BINDING LIGANDS” (Research Triangle Institute, priority 2010, published 2013)
Entries after “also recorded” stand apart in the source; their conditions may differ. Counter-ions that a name gives are not always drawn. Marks after values point to notes of the source that are not given here.

Legend:
rodents = settings: forced-swim, elevated plus maze, fear-potentiated startle; cited from earlier work
mice = settings: oral; cited from earlier work
[1] = target: T1, cloned human κ-opioid receptor (Homo sapiens, UniProt P41145); test: Intrinsic activity in the [35S]GTPγS binding assay; format: biochemical; set-up: expressed in transfected cells; host or cells: CHO cells; settings: at 10 μM
Procedure: (§1) Test compound assay concentrations ranged from 1-5000 nM, depending on their activity. The Ke values were calculated using the formula: Ke=[L]/DR−1, where [L] is the concentration of test compound and DR is the ratio of agonist EC50 value in the presence or absence of test compound, respectively.

[2] = target: T1, cloned human κ-opioid receptor; test: Inhibition of U69,593-stimulated [35S]GTPγS binding; settings: for κ, U69,593 Ke / κ, U69,593 Ke (nM): antagonism of U69,593-stimulated [35S]GTPγS binding, CHO cells, means ± SE, at least three experiments; for δ/κ: κ selectivity relative to δ
Procedure: as §1

[3] = target: T1, cloned human κ-opioid receptor; set-up: expressed in transfected cells; host or cells: CHO cells; settings: previously reported; cited from earlier work
rats = settings: oral; cited from earlier work
[4] = target: T2, cloned human δ-opioid receptor (Homo sapiens, UniProt P41143); test: Intrinsic activity in the [35S]GTPγS binding assay; format: biochemical; settings: at 10 μM
T2 construct: expressed in transfected cells; host or cells: CHO cells
Procedure: as §1

κ-opioid receptor = settings: in vivo, compared with other κ-opioid antagonists; cited from earlier work
[5] = target: T3, cloned human μ-opioid receptor (Homo sapiens, UniProt P35372); test: Intrinsic activity in the [35S]GTPγS binding assay; format: biochemical; settings: at 10 μM
T3 construct: expressed in transfected cells; host or cells: CHO cells
Procedure: as §1

[6] = target: T3, cloned human μ-opioid receptor; test: Inhibition of DAMGO-stimulated [35S]GTPγS binding; format: biochemical; settings: for μ, DAMGO Ke (nM): antagonism of DAMGO-stimulated [35S]GTPγS binding, CHO cells, means ± SE, at least three experiments
Procedure: as §1

[7] = target: T2, cloned human δ-opioid receptor; test: Inhibition of DPDPE-stimulated [35S]GTPγS binding; format: biochemical; settings: antagonism of DPDPE-stimulated [35S]GTPγS binding, CHO cells; means ± SE, at least three experiments
Procedure: as §1

T3 sequence (P35372 whole entry): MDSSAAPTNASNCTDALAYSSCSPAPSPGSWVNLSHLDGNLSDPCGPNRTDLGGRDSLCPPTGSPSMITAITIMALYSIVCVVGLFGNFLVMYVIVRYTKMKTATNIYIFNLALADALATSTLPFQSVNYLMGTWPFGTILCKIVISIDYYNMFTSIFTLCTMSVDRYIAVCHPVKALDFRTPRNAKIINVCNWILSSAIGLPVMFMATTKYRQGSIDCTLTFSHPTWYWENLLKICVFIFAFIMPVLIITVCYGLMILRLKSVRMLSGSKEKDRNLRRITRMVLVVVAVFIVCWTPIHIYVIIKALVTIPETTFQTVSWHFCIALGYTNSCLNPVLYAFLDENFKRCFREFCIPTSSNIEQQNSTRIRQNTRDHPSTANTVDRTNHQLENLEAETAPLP
T2 sequence (P41143 whole entry): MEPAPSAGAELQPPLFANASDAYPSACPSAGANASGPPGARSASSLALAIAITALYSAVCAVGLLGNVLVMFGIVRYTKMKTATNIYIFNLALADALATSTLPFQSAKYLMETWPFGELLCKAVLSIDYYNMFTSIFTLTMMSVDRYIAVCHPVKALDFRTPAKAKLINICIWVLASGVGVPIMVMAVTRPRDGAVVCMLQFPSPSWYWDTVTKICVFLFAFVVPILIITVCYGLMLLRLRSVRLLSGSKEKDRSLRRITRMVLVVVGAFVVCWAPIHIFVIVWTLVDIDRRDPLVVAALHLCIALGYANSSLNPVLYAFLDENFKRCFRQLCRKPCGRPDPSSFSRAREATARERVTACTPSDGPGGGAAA
T1 sequence (P41145 whole entry): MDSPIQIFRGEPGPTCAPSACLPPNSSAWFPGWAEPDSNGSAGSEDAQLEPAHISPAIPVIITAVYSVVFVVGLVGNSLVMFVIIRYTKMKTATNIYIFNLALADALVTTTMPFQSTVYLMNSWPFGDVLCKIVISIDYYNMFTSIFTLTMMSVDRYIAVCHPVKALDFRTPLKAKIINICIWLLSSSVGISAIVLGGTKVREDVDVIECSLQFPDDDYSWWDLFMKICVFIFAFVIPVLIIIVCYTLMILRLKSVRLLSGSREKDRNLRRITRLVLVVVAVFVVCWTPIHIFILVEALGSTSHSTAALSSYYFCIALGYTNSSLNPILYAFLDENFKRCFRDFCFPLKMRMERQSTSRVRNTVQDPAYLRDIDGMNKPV

COc1cccc([C@]2(C)CCN(C[C@@H](NC(=O)[C@H]3Cc4ccc(O)cc4CN3C)C(C)C)C[C@@H]2C)c1 (as salt: hydrochloride) [Compound 8k, (3R)-7-Hydroxy-N-[(1S)-1-{[(3R,4R)-4-(3-methoxyphenyl)-3,4-dimethylpiperidin-1-yl]methyl}-2-methylpropyl]-2-methyl-1,2,3,4-tetrahydroisoquinoline-3-carboxamide]
melting point: 210 to 215 °C (dec.)

COc1cccc([C@]2(C)CCN(C[C@@H](NC(=O)[C@@]3(C)Cc4ccc(OC)cc4CN3)C(C)C)C[C@@H]2C)c1 (as salt: hydrochloride) [Compound 8l, (3R)-7-Methoxy-N-[(1S)-1-{[(3R,4R)-4-(3-methoxyphenyl)-3,4-dimethylpiperidin-1-yl]methyl}-2-methylpropyl]-3-methyl-1,2,3,4-tetrahydroisoquinoline-3-carboxamide]
melting point: > 220 °C (dec.)

CC[C@H](C)[C@@H](CN1CC[C@@](C)(c2cccc(OC)c2)[C@@H](C)C1)NC(=O)[C@@]1(C)Cc2ccc(O)cc2CN1 (as salt: hydrochloride) [Compound 8n, (3R)-7-Hydroxy-N-[(1S,2S)-1-{[(3R,4R)-4-(3-methoxyphenyl)-3,4-dimethylpiperidin-1-yl]methyl}-2-methylbutanyl)-3-methyl-1,2,3,4-tetrahydroisoquinoline-3-carboxamide]
melting point: 210 °C (dec.)

COc1ccc2c(c1)CN(C)[C@@](C)(C(=O)N[C@H](CN1CC[C@@](C)(c3cccc(O)c3)[C@@H](C)C1)C(C)C)C2 (as salt: hydrochloride) [Compound 8o, (3R)-7-Methoxy-N-[(1S)-1-{[(3R,4R)-4-(3-hydroxyphenyl)-3,4-dimethylpiperidin-1-yl]methyl}-2-methylpropyl]-2,3-dimethyl-1,2,3,4-tetrahydroisoquinoline-3-carboxamide]
melting point: 199 °C (dec.)

CC[C@H](C)[C@@H](CN1CC[C@@](C)(c2cccc(OC)c2)[C@@H](C)C1)NC(=O)[C@H]1Cc2ccc(O)cc2CN1C (as salt: hydrochloride) [Compound 8p, (3R)-7-Hydroxy-N-[(1S,2S)-1-{[(3R,4R)-4-(3-methoxyphenyl)-3,4-dimethylpiperidin-1-yl]methyl}-2-methylbutanyl]-2-methyl-1,2,3,4-tetrahydroisoquinoline-3-carboxamide]
melting point: 180 °C (dec.)

Oc1ccc2c3c1O[C@H]1c4[nH]c5c(c4C[C@@]4(O)[C@@H](C2)N(CC2CC2)CC[C@]314)C[C@@]1(O)[C@H]2Cc3ccc(O)c4c3[C@@]1(CCN2CC1CC1)[C@H]5O4 [Compound 1, nor-BNI]
fear and stress-induced responses (rodents): dose-dependently reduce fear and stress-induced responses

CC(C)[C@@H](CN1CC[C@@](C)(c2cccc(O)c2)[C@@H](C)C1)NC(=O)[C@H]1Cc2ccc(O)cc2CN1 [Compound 3, (3R)-7-hydroxy-N-((1S)-1-{[(3R,4R)-4-(3-hydroxyphenyl)-3,4-dimethyl-1-piperidinyl]methyl}-2-methylpropyl)-1,2,3,4-tetrahydro-3-isoquinolinecarboxamide]
antagonism of the antinociceptive activity of enadoline (mice): oral activity
intrinsic activity at the κ opioid receptor [1]: none of the compounds displayed measurable intrinsic activity
fear and stress-induced responses (rodents): dose-dependently reduce fear and stress-induced responses
κ, U69,593 Ke [2]: 0.02 nM
Ke value at the κ-opioid receptor [3]: 0.02 nM
prevention of stress-induced cocaine reinstatement of self-administration (rats): oral activity
intrinsic activity at the δ opioid receptor [4]: none of the compounds displayed measurable intrinsic activity
potency at blocking κ-opioid agonist-induced activity (κ-opioid receptor): more potent
intrinsic activity at the μ opioid receptor [5]: none of the compounds displayed measurable intrinsic activity

CCC(C)C(CN1CCC(C)(c2cccc(O)c2)C(C)C1)NC(=O)C1Cc2ccc(O)cc2CN1 (centres unmarked) [Compound 8a]
μ, DAMGO Ke (nM) [6]: 3 ± 1^c nM
potency at μ receptors compared to 3 ([6]; compared with 3): increased potency; also recorded: eight-fold increase in potency
κ, U69,593 Ke [2]: 0.03 nM
κ, U69,593 Ke (nM) [2]: 0.03 ± 0.02^c nM
δ/κ ([2]; ratio of Ke values): 800
Ke value at the κ-opioid receptor [3]: 0.03 nM
κ selectivity relative to the δ opioid receptor [3]: 800 fold
κ selectivity relative to the μ opioid receptor [3]: 100 fold
δ, DPDPE Ke (nM) [7]: 24 ± 4^c nM

COc1ccc2c(c1)CNC(C(=O)NC(CN1CCC(C)(c3cccc(O)c3)C(C)C1)C(C)C)C2 (centres unmarked) [Compound 8b]
μ, DAMGO Ke (nM) [6]: 51.4 ± 15^c nM
κ, U69,593 Ke [2]: 0.06 nM
κ, U69,593 Ke (nM) [2]: 0.06 ± 0.01^c nM
decrease in potency at the κ receptor relative to 3 ([2]; compared with 3): 3 fold
δ/κ ([2]; ratio of Ke values): 1970
μ/κ ([2]; ratio of Ke values, κ selectivity relative to μ): 857
Ke value at the κ-opioid receptor [3]: 0.06 nM
fold less potent than 3 at the κ-opioid receptor [3]: 3 fold
κ selectivity relative to the δ opioid receptor [3]: 1970 fold
κ selectivity relative to the μ opioid receptor [3]: 857 fold
δ, DPDPE Ke (nM) [7]: 118 ± 45^c nM
